Laboratory results reported in patent publication US20150344485A1, “BICYCLIC PYRIMIDONE COMPOUNDS AS INHIBITORS OF LP-PLA2” (GLAXOSMITHKLINE INTELLECTUAL PROPERTY DEVELOPMENT LIMITED, priority 2013, published 2015).
Read-outs that look alike come from different tables or passages of the source.

Assays:
[1] = target: T1, recombinant human Lp-PLA2 (Homo sapiens, UniProt Q13093); test: Recombinant human Lp-PLA2 assay (rhLp-PLA2, PED6 assay); assay type: biochemical
T1 sequence (Q13093 22-441): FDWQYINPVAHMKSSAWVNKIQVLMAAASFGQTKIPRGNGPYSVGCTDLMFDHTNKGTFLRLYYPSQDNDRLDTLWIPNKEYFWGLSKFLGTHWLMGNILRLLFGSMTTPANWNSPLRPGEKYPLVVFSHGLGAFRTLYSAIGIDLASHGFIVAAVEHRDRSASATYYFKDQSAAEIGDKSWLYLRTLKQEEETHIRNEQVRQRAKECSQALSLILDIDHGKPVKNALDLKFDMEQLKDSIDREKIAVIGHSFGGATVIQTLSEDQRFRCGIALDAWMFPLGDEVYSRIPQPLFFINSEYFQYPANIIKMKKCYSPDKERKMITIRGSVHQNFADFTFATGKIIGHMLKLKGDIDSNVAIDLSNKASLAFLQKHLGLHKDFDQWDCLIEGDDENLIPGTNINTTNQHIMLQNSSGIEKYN
Description: (1) Recombinant Human Lp-PLA2 Assay (rhLp-PLA2) (Also Referred to as “PED6” Assay)
N-((6-(2,4-dinitrophenyl)amino)-hexanoyl)-2-(4,4-difluoro-5,7-dimethyl-4-bora-3a,4a-diaza-s-indacene-3-pentanoyl)-1-hexadecanoyl-sn-glycero-3-phosphoethanolamine, triethylammonium salt (PED6) is a commercially available fluorescently-labeled phospholipid, which is commercially available from Invitrogene and Molecular Probes. There is a quenching para-nitro phenyl (PNP) group in the sn3 position and a Bodipy fluorescein (FL) group in the sn2 position. Upon cleavage with Lp-PLA2, the Bodipy FL group is liberated and then may result in an increase in fluorescence. Inhibitors of Lp-PLA2 therefore prevent this cleavage and no fluorescent increase is observed.
The PED6 assay was run as an unquenched 10 μL assay. The source plate containing the compounds to be tested was prepared by making 1:3 (by volume) serial dilution of the compounds within DMSO on 384-well microplate. Then, 0.01 μL of the compounds on compound source plate were transferred into 384 well Greiner 784076 (black) plates using ECHO liquid dispenser. 5 μL of recombinant human Lp-PLA2 enzyme (4 nM (or 110 pM) rhLp-PLA2 in assay buffer of 50 mM HEPES, pH 7.4, 150 mM NaCl, 1 mM CHAPS) was added to each well of the plate. Plates were centrifuged for 10 sec at 500 rpm. After 30 minutes preincubation, 5 μL of substrate (4 μM (or 5 μM) PED6 [from 5 mM DMSO stock] in assay buffer of 50 mM HEPES, pH 7.4, 150 mM NaCl, 1 mM CHAPS) was added to 384 well Greiner 784076 (black) plates. Plates were centrifuged for 10 sec at 500 rpm. The plate was covered to protect it from light and incubated for 20 min at room temperature. The plates were read for fluorescence intensity at ex: 480/em: 540 using ViewLux microplate imager for Envision spectrofluroimeters. pIC50 data, curve and QC analysis was conducted by using XL fit module in Excel.

Lp-PLA2 in human plasma = target: T2, Lp-PLA2 in human plasma (Homo sapiens, UniProt Q13093); test: Lp-PLA2 human plasma assay (Thio-PAF assay); assay type: biochemical; settings: pooled human plasma; read-out: pIC50 values in the thio-PAF assay (converted)
T2 construct: from tissue; host or cells: pooled human plasma
T2 sequence (Q13093 22-441): T1 sequence (Q13093 22-441)
Method in brief: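 Pooled human plasma preincubated 30 min with compound, then 2-thio-PAF substrate added with CPM and NEM in 50 mM HEPES pH 7.4, 150 mM NaCl, 1 mM CHAPS. Quenched with TFA after 2 min, incubated 40 min at room temperature, and read by fluorescence at ex 380/em 485 nm. Values given as pIC50.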

[2] = read-out: pIC50 values in the recombinant human Lp-PLA2 assay (converted)
[3] = read-out: rhLp-PLA2 (PED6 assay) (pIC50) (converted)

SMILES | IC50 [1, 2] | IC50 (Lp-PLA2 in human plasma) | IC50 [1, 3]
C[C@@H]1CCn2c(cc(OCc3ccc(Oc4ccnc(C(F)(F)F)c4)c(F)c3)nc2=O)N1C [E147, (R)-8-((3-fluoro-4-((2-(trifluoromethyl)pyridin-4-yl)oxy)benzyl)oxy)-1,2-dimethyl-3,4-dihydro-1H-pyrimido[1,6-a]pyrimidin-6(2H)-one] | ≤ 1 nM | ≤ 10 nM | 
C[C@@H]1CCn2c(cc(OCc3ccc(Oc4ccc(Cl)c(F)c4)c(C#N)c3)nc2=O)N1C [E76, (R)-2-(4-chloro-3-fluorophenoxy)-5-(((1,2-dimethyl-6-oxo-2,3,4,6-tetrahydro-1H-pyrimido[1,6-a]pyrimidin-8-yl)oxy)methyl)benzonitrile] | ≤ 1 nM | ≤ 100 nM | 
C[C@@H]1CCn2c(cc(OCc3cc(F)c(Oc4cncc(C(F)(F)F)c4)c(F)c3)nc2=O)N1C [E148, (R)-8-((3,5-difluoro-4-((5-(trifluoromethyl)pyridin-3-yl)oxy)benzyl)oxy)-1,2-dimethyl-3,4-dihydro-1H-pyrimido[1,6-a]pyrimidin-6(2H)-one] | ≤ 1 nM | ≤ 10 nM | 
C[C@H]1CCn2c(cc(OCc3cc(F)c(Oc4ccc(Cl)cc4)c(F)c3)nc2=O)N1C [E95, (S)-8-((4-(4-chlorophenoxy)-3,5-difluorobenzyl)oxy)-1,2-dimethyl-3,4-dihydro-1H-pyrimido[1,6-a]pyrimidin-6(2H)-one] | ≤ 1 nM | ≤ 100 nM | 
C[C@H]1CCn2c(cc(OCc3ccc(Oc4cccc(F)c4)c(C#N)c3)nc2=O)N1C [E92, (S)-5-(((1,2-dimethyl-6-oxo-2,3,4,6-tetrahydro-1H-pyrimido[1,6-a]pyrimidin-8-yl)oxy)methyl)-2-(3-fluorophenoxy)benzonitrile] | ≤ 1 nM | ≤ 10 nM | 
C[C@@H]1CCn2c(cc(OCc3cc(F)c(Oc4cccc(C(F)(F)F)c4)c(F)c3)nc2=O)N1C [E77, (R)-8-((3,5-difluoro-4-(3-(trifluoromethyl)phenoxy)benzyl)oxy)-1,2-dimethyl-3,4-dihydro-1H-pyrimido[1,6-a]pyrimidin-6(2H)-one] | ≤ 1 nM | ≤ 10 nM | 
C[C@H]1CCn2c(cc(OCc3ccc(Oc4ccc(F)c(F)c4)c(C#N)c3)nc2=O)N1C [E99, (S)-2-(3,4-difluorophenoxy)-5-(((1,2-dimethyl-6-oxo-2,3,4,6-tetrahydro-1H-pyrimido[1,6-a]pyrimidin-8-yl)oxy)methyl)benzonitrile] | ≤ 1 nM | ≤ 10 nM | 
CN1c2cc(OCc3cc(F)c(F)c(F)c3)nc(=O)n2CCC1(C)C [E54, 1,2,2-trimethyl-8-((3,4,5-trifluorobenzyl)oxy)-3,4-dihydro-1H-pyrimido[1,6-a]pyrimidin-6(2H)-one] | ≤ 1 nM | ≤ 100 nM | 
C[C@H]1CCn2c(cc(OCc3cc(F)c(Oc4cccc(F)c4)c(F)c3)nc2=O)N1C [E96] | ≤ 1 nM | ≤ 100 nM | 
C[C@@H]1CCn2c(cc(OCc3ccc(Oc4ccc(C(F)(F)F)c(F)c4)cc3)nc2=O)N1C [E108, (R)-8-((4-(3-fluoro-4-(trifluoromethyl)phenoxy)benzyl)oxy)-1,2-dimethyl-3,4-dihydro-1H-pyrimido[1,6-a]pyrimidin-6(2H)-one] | ≤ 1 nM | ≤ 100 nM | 
CCN1c2cc(OCc3cc(F)c(F)c(F)c3)nc(=O)n2CC[C@@H]1C [E56, (S)-1-ethyl-2-methyl-8-((3,4,5-trifluorobenzyl)oxy)-3,4-dihydro-1H-pyrimido[1,6-a]pyrimidin-6(2H)-one] | ≤ 1 nM | ≤ 10 nM | 0.398 nM
CC1CCn2c(cc(OCc3ccc(Oc4ccc(C(F)(F)F)nc4)c(F)c3)nc2=O)N1 (stereo not drawn) [E1, 8-((3-fluoro-4-((6-(trifluoromethyl)pyridin-3-yl)oxy)benzyl)oxy)-2-methyl-3,4-dihydro-1H-pyrimido[1,6-a]pyrimidin-6(2H)-one] | ≤ 1 nM | ≤ 100 nM | 
C[C@@H]1CCn2c(cc(OCc3ccc(Oc4ccc(F)c(Cl)c4)c(C#N)c3)nc2=O)N1C [E79, (R)-2-(3-chloro-4-fluorophenoxy)-5-(((1,2-dimethyl-6-oxo-2,3,4,6-tetrahydro-1H-pyrimido[1,6-a]pyrimidin-8-yl)oxy)methyl)benzonitrile] | ≤ 1 nM | ≤ 100 nM | 
C[C@@H]1CCn2c(cc(OCc3ccc(Oc4ccc(F)cc4)c(C#N)c3)nc2=O)N1C [E125, (R)-5-(((1,2-dimethyl-6-oxo-2,3,4,6-tetrahydro-1H-pyrimido[1,6-a]pyrimidin-8-yl)oxy)methyl)-2-(4-fluorophenoxy)benzonitrile] | ≤ 1 nM | ≤ 100 nM | 
C[C@@H]1CCn2c(cc(OCc3ccc(Oc4ccc(F)c(F)c4)c(C#N)c3)nc2=O)N1C [E114, (R)-2-(3,4-difluorophenoxy)-5-(((1,2-dimethyl-6-oxo-2,3,4,6-tetrahydro-1H-pyrimido[1,6-a]pyrimidin-8-yl)oxy)methyl)benzonitrile] | ≤ 1 nM | ≤ 10 nM | 
C[C@@H]1CCn2c(cc(OCc3ccc(F)c(F)c3)nc2=O)N1 [E28, (R)-8-((3,4-difluorobenzyl)oxy)-2-methyl-3,4-dihydro-1H-pyrimido[1,6-a]pyrimidin-6(2H)-one] | ≤ 1 nM | ≤ 100 nM | 

Other lines, results leading:

IC50 [1, 2] | IC50 (Lp-PLA2 in human plasma) | IC50 [1, 3] | SMILES
 | ≤ 100 nM | 3.16 nM | CC1CCn2c(cc(OCc3ccc(F)c(F)c3)nc2=O)N1 (stereo not drawn) [E4, 8-((3,4-difluorobenzyl)oxy)-2-methyl-3,4-dihydro-1H-pyrimido[1,6-a]pyrimidin-6(2H)-one]
≤ 1 nM | ≤ 100 nM | 0.398 nM | C[C@H]1CCn2c(cc(OCc3ccc(Oc4cnc(C(F)(F)F)nc4)c(F)c3)nc2=O)N1C [E107, (S)-8-((3-fluoro-4-((2-(trifluoromethyl)pyrimidin-5-yl)oxy)benzyl)oxy)-1,2-dimethyl-3,4-dihydro-1H-pyrimido[1,6-a]pyrimidin-6(2H)-one]
≤ 1 nM | ≤ 100 nM |  | C[C@@H]1CCn2c(cc(OCc3cc(F)c(Oc4ccc(C(F)(F)F)nc4)c(F)c3)nc2=O)N1C [E119, (R)-8-((3,5-difluoro-4-((6-(trifluoromethyl)pyridin-3-yl)oxy)benzyl)oxy)-1,2-dimethyl-3,4-dihydro-1H-pyrimido[1,6-a]pyrimidin-6(2H)-one]
≤ 1 nM | ≤ 100 nM |  | CC1CCn2c(cc(OCc3ccc(Oc4ccc(Cl)c(F)c4)c(C#N)c3)nc2=O)N1 (stereo not drawn) [E6, 2-(4-chloro-3-fluorophenoxy)-5-(((2-methyl-6-oxo-2,3,4,6-tetrahydro-1H-pyrimido[1,6-a]pyrimidin-8-yl)oxy)methyl)benzonitrile]
≤ 1 nM | ≤ 100 nM |  | [2H]C([2H])(Oc1cc2n(c(=O)n1)CCC(C)(C)N2C)c1cc(F)c(F)cc1F [E71, 8-(dideutero(2,4,5-trifluorophenyl)methoxy)-1,2,2-trimethyl-3,4-dihydro-1H-pyrimido[1,6-a]pyrimidin-6(2H)-one]
≤ 1 nM | ≤ 10 nM |  | C[C@@H]1CCn2c(cc(OCc3ccc(Oc4ccc(F)c(C(F)(F)F)c4)cc3)nc2=O)N1C [E87, (R)-8-((4-(4-fluoro-3-(trifluoromethyl)phenoxy)benzyl)oxy)-1,2-dimethyl-3,4-dihydro-1H-pyrimido[1,6-a]pyrimidin-6(2H)-one]
≤ 1 nM | ≤ 100 nM |  | C[C@H]1CCn2c(cc(OCc3ccc(Oc4ccc(C(F)(F)F)nc4)c(C#N)c3)nc2=O)N1C [E113, (S)-5-(((1,2-dimethyl-6-oxo-2,3,4,6-tetrahydro-1H-pyrimido[1,6-a]pyrimidin-8-yl)oxy)methyl)-2-((6-(trifluoromethyl)pyridin-3-yl)oxy)benzonitrile]
